Assay: mn = molality of the nth substance listed, in mol/kg
Settings: 101 kPa, Liquid; for viscosity: Capillary tube (Ostwald / Ubbelohde) method; for speed of sound: Pulse-echo method; for mass density: Vibrating tube method

CCCCCCCCCCCCc1ccccc1S(=O)(=O)[O-].[Na+] [sodium dodecylbenzenesulfonate (ILL DEFINED!)] + O
Settings | mass density, 298.15 K [kg/m3] | mass density, 308.15 K [kg/m3] | speed of sound, 298.15 K [m/s] | speed of sound, 308.15 K [m/s] | viscosity, 298.15 K [mPa·s] | viscosity, 308.15 K [mPa·s]
m1 = 0.05 | 999.92 | 996.76 | 1498.7 | 1522.7 | 0.999 | 0.795
m1 = 0.1 | 1002.75 | 999.44 | 1500 | 1523.5 | 1.106 | 0.868
